Structure (SMILES) | melting point [°C]
COc1ccc(C(=O)c2cccc(OCc3nc(-c4ccccc4)oc3C)c2)c(OCCOC(C)=O)c1 [Example 2, (5-methoxy-2-{3-[(5-methyl-2-phenyl-1,3-oxazol-4-yl)methoxy]benzoyl}phenoxy)ethyl acetate] | 90 to 91
COc1ccc(C(=O)c2cccc(OCc3nc(-c4ccccc4)oc3C)c2)c(OCC(=O)O)c1 [Example 4, (5-methoxy-2-{3-[(5-methyl-2-phenyl-1,3-oxazol-4-yl)methoxy]benzoyl}phenoxy)acetic acid] | 198 to 199
COc1ccc(C(C)(O)c2cccc(OCc3nc(-c4ccccc4)oc3C)c2)c(OCCOC(C)=O)c1 (stereo not drawn) [Example 5, [2-(1-hydroxy-1-{3-[(5-methyl-2-phenyl-1,3-oxazol-4-yl)methoxy]phenyl}ethyl)-5-methoxyphenoxy]ethyl acetate] | 144 to 145
COc1ccc(C(C)(O)c2cccc(OCc3nc(-c4ccccc4)oc3C)c2)c(OCC(=O)O)c1 (stereo not drawn) [Example 6, [2-(1-hydroxy-1-{3-[(5-methyl-2-phenyl-1,3-oxazol-4-yl)methoxy]phenyl}ethyl)-5-methoxyphenoxy]acetic acid] | 148 to 149
CCOC(c1cccc(OCc2nc(-c3ccccc3)oc2C)c1)c1ccc(OC)cc1OCC(=O)O (stereo not drawn) [Example 7, [2-(ethoxy{3-[(5-methyl-2-phenyl-1,3-oxazol-4-yl)methoxy]phenyl}methyl)-5-methoxyphenoxy]acetic acid] | 129 to 130
Cc1oc(-c2ccccc2)nc1COc1ccc(C(=O)c2ccccc2OCC(=O)O)cc1 [Example 8, (2-{4-[(5-methyl-2-phenyl-1,3-oxazol-4-yl)methoxy]benzoyl}phenoxy)acetic acid] | 174 to 175
Cc1oc(-c2ccccc2)nc1COc1ccc(C(=O)c2ccc(O)cc2OCC(=O)O)cc1 [Example 11, (5-hydroxy-2-{4-[(5-methyl-2-phenyl-1,3-oxazol-4-yl)methoxy]benzoyl}phenoxy)acetic acid] | 229 to 230
CCOC(=O)COc1cc(O)ccc1C(=O)c1ccc(OCc2nc(-c3ccccc3)oc2C)cc1 [Example 12, ethyl (5-hydroxy-2-{4-[(5-methyl-2-phenyl-1,3-oxazol-4-yl)methoxy]benzoyl}phenoxy)acetate] | 184 to 186
COc1ccc(C(=O)c2ccc(OCc3nc(-c4ccccc4)oc3C)cc2)c(OC(C)C(=O)O)c1 (stereo not drawn) [Example 13, 2-(5-methoxy-2-{4-[(5-methyl-2-phenyl-1,3-oxazol-4-yl)methoxy]benzoyl}phenoxy)propanoic acid] | 100 to 102
COc1ccc(C(=O)c2ccc(OCc3nc(-c4ccccc4)oc3C)cc2)c(OCCC(=O)O)c1 [Example 15, 3-(5-methoxy-2-{4-[(5-methyl-2-phenyl-1,3-oxazol-4-yl)methoxy]benzoyl}phenoxy)propanoic acid] | 142 to 143
CCC(Oc1cc(OC)ccc1C(=O)c1ccc(OCc2nc(-c3ccccc3)oc2C)cc1)C(=O)O (stereo not drawn) [Example 17, 2-(5-methoxy-2-{4-[(5-methyl-2-phenyl-1,3-oxazol-4-yl)methoxy]benzoyl}phenoxy)butanoic acid] | 161 to 162
COc1ccc(C(=O)c2ccc(OCc3nc(-c4ccccc4)oc3C)cc2)c(OC(C(=O)O)C(C)C)c1 (stereo not drawn) [Example 18, 2-(5-methoxy-2-{4-[(5-methyl-2-phenyl-1,3-oxazol-4-yl)methoxy]benzoyl}phenoxy)-3-methylbutanoic acid] | 87 to 88
COc1ccc(C(=O)c2ccc(OCc3nc(-c4ccccc4)oc3C)cc2)c(OC(F)(F)C(=O)O)c1 [Example 19, difluoro (5-methoxy-2-{4-[(5-methyl-2-phenyl-1,3-oxazol-4-yl)methoxy]benzoyl}phenoxy)acetic acid] | 166 to 167
CCCC(Oc1cc(OC)ccc1C(=O)c1ccc(OCc2nc(-c3ccccc3)oc2C)cc1)C(=O)O (stereo not drawn) [Example 20, 2-(5-methoxy-2-{4-[(5-methyl-2-phenyl-1,3-oxazol-4-yl)methoxy]benzoyl}phenoxy)pentanoic acid] | 139 to 140
COc1ccc(C(=O)c2ccc(OCc3nc(-c4ccccc4)oc3C)cc2)c(OC2(C(=O)O)CCC2)c1 [Example 23, 1-(5-methoxy-2-{4-[(5-methyl-2-phenyl-1,3-oxazol-4-yl)methoxy]benzoyl}phenoxy)cyclobutanecarboxylic acid] | 199 to 201
COc1ccc(C(=O)c2ccc(OCc3nc(-c4ccccc4)sc3C)cc2)c(OC(C)(C)C(=O)O)c1 [Example 29, 2-(5-methoxy-2-{4-[(5-methyl-2-phenyl-1,3-thiazol-4-yl)methoxy]benzoyl}phenoxy)-2-methylpropanoic acid] | 145 to 147
COc1ccc(C(=O)c2ccc(OCc3coc(-c4ccccc4)n3)cc2)c(OC(C)(C)C(=O)O)c1 [Example 32, 2-(5-methoxy-2-{4-[(2-phenyl-1,3-oxazol-4-yl)methoxy]benzoyl}phenoxy)-2-methylpropanoic acid] | 165 to 167
COc1ccc(C(=O)c2ccc(OCc3nc(-c4cccc(OS(C)(=O)=O)c4)oc3C)cc2)c(OC(C)(C)C(=O)O)c1 [Example 37, 2-{5-methoxy-2-[4-({5-methyl-2-[3-(methanesulfonyloxy)phenyl]-1,3-oxazol-4-yl}methoxy)benzoyl]phenoxy}-2-methylpropanoic acid] | 182 to 183
COc1ccc(C(=O)c2ccc(OCCc3nc(-c4ccccc4)oc3C)cc2)c(OC(C)(C)C(=O)O)c1 [Example 38, 2-(5-methoxy-2-{4-[2-(5-methyl-2-phenyl-1,3-oxazol-4-yl)ethoxy]benzoyl}phenoxy)-2-methylpropanoic acid] | 81 to 82
COc1ccc(O[C@H](C)C(=O)O)c(C(=O)c2ccc(OCc3nc(-c4ccccc4)oc3C)cc2)c1 [Example 39, (2R)-2-(4-methoxy-2-{4-[(5-methyl-2-phenyl-1,3-oxazol-4-yl)methoxy]benzoyl}phenoxy)propanoic acid] | 119 to 120
COc1ccc(C(=O)c2ccc(OCc3ccccc3)nc2)c(OC(C)(C)C(=O)OC(C)(C)C)c1 [Example 45, tert-butyl 2-(2-{[6-(benzyloxy)pyridin-3-yl]carbonyl}-5-methoxyphenoxy)-2-methylpropanoate] | 58 to 60
COc1ccc(C(=O)c2ccc(Oc3ccccc3)nc2)c(OC(C)(C)C(=O)O)c1 [Example 51, 2-{5-methoxy-2-[(6-phenoxypyridin-3-yl)carbonyl]phenoxy}-2-methylpropanoic acid] | 167.5 to 168.5
COc1ccc(C(=O)c2ccc(OCc3nc(-c4ccccc4)oc3C)nc2)c(O[C@H](C)C(=O)O)c1 [Example 54, (2R)-2-[5-methoxy-2-({6-[(5-methyl-2-phenyl-1,3-oxazol-4-yl)methoxy]pyridin-3-yl}carbonyl)phenoxy]propanoic acid] | 164.5 to 165.5
COc1ccc(C(=O)c2ccc(OCc3nc(-c4ccccc4)oc3C)cc2)c(O[C@@H](C)C(=O)O)c1 [Example 57, (2S)-2-(5-methoxy-2-{4-[(5-methyl-2-phenyl-1,3-oxazol-4-yl)methoxy]benzoyl}phenoxy)propanoic acid] | 169 to 170

Reference: patent US20090054435A1, “Phenoxyalkanoic Acid Compound” (priority 2005, published 2009)
